From paper PMC7613998, “Development of selective inhibitors of phosphatidylinositol 3-kinase C2α” (Nature Chemical Biology, 2022) come the findings set out here.

What all share (test): biochemical
Design in all cases: SelectScreen Adapta purified lipid kinase panel, 1 uM compound, 10 uM ATP, per cent inhibition

In one test the target is T1, PIP4K2A (Homo sapiens, UniProt P48426).
T1 sequence (P48426 1-406): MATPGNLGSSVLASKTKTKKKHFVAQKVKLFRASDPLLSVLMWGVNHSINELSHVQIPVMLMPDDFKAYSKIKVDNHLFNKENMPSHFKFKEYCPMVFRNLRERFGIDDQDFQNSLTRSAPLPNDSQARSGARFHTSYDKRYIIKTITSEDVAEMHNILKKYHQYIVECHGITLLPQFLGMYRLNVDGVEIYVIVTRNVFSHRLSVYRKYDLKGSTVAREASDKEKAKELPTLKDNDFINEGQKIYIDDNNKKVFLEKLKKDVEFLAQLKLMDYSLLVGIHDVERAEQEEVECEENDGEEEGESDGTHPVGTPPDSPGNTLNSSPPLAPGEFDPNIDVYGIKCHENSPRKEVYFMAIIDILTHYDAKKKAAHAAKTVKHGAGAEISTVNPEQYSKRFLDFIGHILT
Conditions: ATP=10; Technology=Adapta; 10 uM ATP. The procedure: (§1) As PI3KC2α is related to other PI3Ks and to PI3K-like protein kinases such as mTOR, the selectivity of PITCOINs was determined in a panel of biochemical assays. […] Finally, the high specificity of PITCOINs for PI3KC2α was verified by Kinobead profiling experiments. In this approach, the ability of PITCOINs to compete the affinity capture of cellular kinases on immobilized nonselective kinase inhibitors (Kinobeads) is analyzed by mass spectrometry (MS)[31]. […] Four nonkinase weak off-targets were globally found for the three inhibitors with only FECH[32] common to the three PITCOINs (Supplementary Dataset).  Extended Data Fig. 2 Lipid kinase inhibitor profile of PITCOIN1-3. (a–c) Selectivity profiling of PITCOIN1-3 (1 µM) with purified lipid kinases in the presence of 10 µM ATP. […] Data are presented as mean ± SD from two independent experiments. (d, e) IC50 measurements of PITCOIN1-3 against purified recombinant class I PI3K p110α/p85α (d) or purified class III PI3K VPS34 complex II (e). 10 µM ATP and 20 µM PIP3 (for p110α/p85α) or 200 µM PI (for VPS34 complex II) were used as substrates. […] Data are presented as mean ± SD from two independent experiments. Source data

A further test concerns the target SPHK1 (Homo sapiens, UniProt Q9NYA1). Particulars: ATP=10; Technology=Adapta; 10 uM ATP. The procedure: as §1
The target of another test is T2, PIK3C2G (PI3K-C2 gamma) (Homo sapiens, UniProt O75747).
T2 sequence (O75747 1-1486): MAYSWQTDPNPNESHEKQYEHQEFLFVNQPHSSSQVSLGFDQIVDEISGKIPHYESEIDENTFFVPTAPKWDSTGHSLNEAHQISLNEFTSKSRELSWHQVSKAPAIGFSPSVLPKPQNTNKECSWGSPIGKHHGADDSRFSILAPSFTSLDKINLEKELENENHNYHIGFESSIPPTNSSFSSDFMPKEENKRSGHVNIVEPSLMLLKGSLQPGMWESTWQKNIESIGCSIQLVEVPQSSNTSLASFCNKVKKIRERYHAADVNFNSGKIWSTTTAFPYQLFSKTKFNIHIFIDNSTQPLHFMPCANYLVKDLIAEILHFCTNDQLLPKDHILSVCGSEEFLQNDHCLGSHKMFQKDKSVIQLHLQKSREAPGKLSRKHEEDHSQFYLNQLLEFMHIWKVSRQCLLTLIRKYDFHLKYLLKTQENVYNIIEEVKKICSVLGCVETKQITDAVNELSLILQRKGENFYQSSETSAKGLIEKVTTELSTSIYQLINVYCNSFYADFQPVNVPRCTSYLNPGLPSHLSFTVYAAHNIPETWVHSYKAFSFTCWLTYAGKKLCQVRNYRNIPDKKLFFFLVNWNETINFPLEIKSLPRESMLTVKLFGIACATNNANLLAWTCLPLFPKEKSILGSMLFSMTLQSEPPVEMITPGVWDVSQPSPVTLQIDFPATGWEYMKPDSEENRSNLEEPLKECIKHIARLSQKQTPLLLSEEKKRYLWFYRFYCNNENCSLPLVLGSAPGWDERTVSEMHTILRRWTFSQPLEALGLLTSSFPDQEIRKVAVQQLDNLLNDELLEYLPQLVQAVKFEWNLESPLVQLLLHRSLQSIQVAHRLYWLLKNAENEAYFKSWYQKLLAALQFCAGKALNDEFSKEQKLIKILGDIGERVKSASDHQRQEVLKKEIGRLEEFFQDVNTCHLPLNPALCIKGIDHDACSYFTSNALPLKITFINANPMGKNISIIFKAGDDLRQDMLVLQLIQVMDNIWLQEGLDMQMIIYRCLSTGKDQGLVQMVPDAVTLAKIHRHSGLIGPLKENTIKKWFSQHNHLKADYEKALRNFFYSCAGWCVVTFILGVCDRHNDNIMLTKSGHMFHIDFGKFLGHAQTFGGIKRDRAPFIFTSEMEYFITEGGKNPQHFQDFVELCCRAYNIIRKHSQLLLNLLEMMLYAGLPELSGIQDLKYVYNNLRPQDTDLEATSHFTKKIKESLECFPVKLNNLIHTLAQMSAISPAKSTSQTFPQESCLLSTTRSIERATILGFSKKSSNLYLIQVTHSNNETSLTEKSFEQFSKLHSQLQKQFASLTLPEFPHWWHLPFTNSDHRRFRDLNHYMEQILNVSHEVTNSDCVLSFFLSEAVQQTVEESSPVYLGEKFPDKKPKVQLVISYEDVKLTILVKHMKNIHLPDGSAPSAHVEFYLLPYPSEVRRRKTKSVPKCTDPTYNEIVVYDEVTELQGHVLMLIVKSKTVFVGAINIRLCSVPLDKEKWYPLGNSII
Particulars: ATP=10; Technology=Adapta; 10 uM ATP. The procedure:
as §1

Test [1] has as its target PIK3CA E545K/PIK3R1 (p110 alpha E545K/p85 alpha) (Homo sapiens, UniProt P42336, E545K). Conditions: ATP=10; Technology=Adapta; 10 uM ATP. As to the method:
as §1

For the next test, the target named is PIK3C2A (PI3K-C2 alpha) (Homo sapiens, UniProt O00443). Particulars: ATP=10; Technology=Adapta; 10 uM ATP; 1 µM; inhibitor. The procedure:
as §1

A further test addresses PIP5K1C (Homo sapiens, UniProt O60331). Particulars: ATP=10; Technology=Adapta; 10 uM ATP. As to the method: as §1

Chain of SPHK1 (Q9NYA1 whole entry): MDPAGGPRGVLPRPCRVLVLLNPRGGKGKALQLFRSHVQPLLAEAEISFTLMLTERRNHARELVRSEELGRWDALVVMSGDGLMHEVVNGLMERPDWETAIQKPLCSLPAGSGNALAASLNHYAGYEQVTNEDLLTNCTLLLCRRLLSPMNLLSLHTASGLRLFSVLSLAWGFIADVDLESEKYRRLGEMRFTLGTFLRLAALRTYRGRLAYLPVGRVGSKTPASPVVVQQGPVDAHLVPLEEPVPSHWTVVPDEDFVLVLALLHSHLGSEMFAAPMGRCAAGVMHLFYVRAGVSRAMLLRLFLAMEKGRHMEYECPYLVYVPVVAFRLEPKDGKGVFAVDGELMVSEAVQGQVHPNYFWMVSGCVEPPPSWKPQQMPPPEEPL
Chain of PIK3C2A (PI3K-C2 alpha) (O00443 whole entry): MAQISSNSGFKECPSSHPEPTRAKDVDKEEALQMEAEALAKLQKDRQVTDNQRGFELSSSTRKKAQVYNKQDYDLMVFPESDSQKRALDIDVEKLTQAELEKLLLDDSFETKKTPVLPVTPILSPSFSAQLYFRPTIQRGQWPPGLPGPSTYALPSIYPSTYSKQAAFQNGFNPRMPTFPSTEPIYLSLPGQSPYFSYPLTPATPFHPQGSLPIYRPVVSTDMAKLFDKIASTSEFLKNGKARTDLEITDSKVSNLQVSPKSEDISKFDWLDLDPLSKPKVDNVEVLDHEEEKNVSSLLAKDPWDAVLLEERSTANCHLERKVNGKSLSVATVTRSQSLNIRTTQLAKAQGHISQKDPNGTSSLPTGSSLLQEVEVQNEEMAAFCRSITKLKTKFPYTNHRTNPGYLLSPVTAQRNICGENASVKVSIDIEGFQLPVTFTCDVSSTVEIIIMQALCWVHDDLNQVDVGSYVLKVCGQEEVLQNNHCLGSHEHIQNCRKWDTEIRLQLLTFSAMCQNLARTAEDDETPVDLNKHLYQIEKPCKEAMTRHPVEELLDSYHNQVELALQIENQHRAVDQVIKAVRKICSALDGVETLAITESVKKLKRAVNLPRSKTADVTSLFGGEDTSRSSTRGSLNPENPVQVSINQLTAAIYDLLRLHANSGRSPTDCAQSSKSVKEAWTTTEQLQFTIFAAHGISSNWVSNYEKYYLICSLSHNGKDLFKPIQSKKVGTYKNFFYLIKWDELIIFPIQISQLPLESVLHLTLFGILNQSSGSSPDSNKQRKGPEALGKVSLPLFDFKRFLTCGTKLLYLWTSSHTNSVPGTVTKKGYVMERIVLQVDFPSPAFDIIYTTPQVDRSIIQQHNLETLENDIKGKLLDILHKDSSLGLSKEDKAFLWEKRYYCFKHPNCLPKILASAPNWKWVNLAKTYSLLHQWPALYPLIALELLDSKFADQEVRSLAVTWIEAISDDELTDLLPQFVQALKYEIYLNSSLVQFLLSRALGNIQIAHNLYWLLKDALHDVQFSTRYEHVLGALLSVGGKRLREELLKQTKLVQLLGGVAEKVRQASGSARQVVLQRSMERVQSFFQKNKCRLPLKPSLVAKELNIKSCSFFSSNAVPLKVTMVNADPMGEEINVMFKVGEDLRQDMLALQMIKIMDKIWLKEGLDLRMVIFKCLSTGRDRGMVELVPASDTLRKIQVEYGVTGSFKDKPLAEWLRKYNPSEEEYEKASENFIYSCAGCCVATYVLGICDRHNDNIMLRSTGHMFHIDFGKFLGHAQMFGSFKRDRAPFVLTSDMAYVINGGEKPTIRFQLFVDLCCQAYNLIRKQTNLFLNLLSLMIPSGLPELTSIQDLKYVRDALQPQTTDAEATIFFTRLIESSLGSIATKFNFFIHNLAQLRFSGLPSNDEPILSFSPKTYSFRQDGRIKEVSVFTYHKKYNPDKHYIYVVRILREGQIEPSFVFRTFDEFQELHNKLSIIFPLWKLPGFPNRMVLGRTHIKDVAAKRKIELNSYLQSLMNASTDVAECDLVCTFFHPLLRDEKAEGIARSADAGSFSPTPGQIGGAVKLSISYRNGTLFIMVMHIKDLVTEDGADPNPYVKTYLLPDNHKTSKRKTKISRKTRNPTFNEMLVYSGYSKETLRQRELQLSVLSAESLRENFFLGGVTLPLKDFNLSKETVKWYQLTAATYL
Chain of PIP5K1C (O60331 whole entry): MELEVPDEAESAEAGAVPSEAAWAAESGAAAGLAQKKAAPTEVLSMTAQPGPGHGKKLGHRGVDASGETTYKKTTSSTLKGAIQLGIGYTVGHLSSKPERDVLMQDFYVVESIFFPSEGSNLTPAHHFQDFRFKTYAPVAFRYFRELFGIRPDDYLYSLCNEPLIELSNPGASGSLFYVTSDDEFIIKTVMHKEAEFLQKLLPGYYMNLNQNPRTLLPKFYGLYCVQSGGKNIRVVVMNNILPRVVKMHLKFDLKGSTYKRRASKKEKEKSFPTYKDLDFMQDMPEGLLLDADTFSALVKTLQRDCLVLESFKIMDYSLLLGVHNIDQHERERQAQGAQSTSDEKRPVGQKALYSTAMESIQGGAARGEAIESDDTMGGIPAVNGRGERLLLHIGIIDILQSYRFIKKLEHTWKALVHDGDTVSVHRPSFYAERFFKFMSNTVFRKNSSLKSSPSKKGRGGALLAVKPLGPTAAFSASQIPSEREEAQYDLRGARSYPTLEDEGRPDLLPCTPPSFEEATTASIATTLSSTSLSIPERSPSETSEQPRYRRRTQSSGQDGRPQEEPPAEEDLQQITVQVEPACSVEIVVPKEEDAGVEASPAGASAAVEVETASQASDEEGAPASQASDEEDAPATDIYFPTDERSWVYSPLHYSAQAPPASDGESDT
Chain of PIK3CA E545K/PIK3R1 (p110 alpha E545K/p85 alpha) (P42336 whole entry E545K): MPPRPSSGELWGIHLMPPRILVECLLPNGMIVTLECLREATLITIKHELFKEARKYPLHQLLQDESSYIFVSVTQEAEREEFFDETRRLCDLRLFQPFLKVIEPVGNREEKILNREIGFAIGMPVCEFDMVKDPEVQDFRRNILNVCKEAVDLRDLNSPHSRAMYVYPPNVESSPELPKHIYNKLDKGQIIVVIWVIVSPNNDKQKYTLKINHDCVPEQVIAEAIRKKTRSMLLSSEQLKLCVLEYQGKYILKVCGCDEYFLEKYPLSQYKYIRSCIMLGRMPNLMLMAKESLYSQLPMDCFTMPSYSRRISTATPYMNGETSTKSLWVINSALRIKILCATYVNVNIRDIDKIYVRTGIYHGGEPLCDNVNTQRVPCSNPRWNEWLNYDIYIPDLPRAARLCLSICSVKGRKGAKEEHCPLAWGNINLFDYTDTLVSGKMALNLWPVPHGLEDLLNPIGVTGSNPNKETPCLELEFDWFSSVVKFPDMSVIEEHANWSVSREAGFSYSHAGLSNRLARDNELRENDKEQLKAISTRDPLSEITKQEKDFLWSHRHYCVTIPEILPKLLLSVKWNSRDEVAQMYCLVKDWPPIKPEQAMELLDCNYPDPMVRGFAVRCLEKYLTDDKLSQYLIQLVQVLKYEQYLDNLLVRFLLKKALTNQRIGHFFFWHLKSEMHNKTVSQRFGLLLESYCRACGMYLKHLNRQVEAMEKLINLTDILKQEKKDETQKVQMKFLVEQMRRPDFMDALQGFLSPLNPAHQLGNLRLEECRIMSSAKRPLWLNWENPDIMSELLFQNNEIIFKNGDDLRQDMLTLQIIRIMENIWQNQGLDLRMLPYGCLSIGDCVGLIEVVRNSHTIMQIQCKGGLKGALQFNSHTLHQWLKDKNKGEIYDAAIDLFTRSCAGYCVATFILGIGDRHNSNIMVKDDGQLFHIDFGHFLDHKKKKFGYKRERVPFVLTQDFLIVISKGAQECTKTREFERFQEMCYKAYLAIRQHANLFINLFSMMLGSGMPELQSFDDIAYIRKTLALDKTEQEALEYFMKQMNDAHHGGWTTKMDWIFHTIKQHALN
Chain of PIK3CA E545K/PIK3R1 (p110 alpha E545K/p85 alpha) (P27986 whole entry partner): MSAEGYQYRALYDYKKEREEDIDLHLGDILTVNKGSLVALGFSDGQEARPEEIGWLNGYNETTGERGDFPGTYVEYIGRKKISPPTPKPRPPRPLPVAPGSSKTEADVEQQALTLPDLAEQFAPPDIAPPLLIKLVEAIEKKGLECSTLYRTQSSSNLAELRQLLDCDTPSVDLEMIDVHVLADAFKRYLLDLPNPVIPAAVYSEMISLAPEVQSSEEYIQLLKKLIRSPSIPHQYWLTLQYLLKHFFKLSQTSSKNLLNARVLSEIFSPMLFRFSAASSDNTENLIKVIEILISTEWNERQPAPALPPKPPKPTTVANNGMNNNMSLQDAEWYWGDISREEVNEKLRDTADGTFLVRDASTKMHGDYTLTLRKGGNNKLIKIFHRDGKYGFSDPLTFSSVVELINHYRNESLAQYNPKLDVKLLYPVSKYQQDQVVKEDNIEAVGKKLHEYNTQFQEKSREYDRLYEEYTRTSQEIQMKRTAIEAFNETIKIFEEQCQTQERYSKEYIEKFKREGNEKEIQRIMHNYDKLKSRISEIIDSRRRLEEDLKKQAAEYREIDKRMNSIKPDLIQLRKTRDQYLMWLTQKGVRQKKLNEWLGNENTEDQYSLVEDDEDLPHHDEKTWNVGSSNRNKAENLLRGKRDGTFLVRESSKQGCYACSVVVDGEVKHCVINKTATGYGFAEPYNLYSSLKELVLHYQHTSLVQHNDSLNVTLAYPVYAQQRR

By inhibition is commonly meant the drop in the measured response relative to a control, in per cent. In the case of `O=C(CSc1nc2nccnc2c(=O)n1CCc1ccccc1)Nc1nccs1` [compound 1, PITCOIN1], the inhibition at 1 µM at PIP4K2A was 13%; against SPHK1 it was -1%; against PIK3C2G (PI3K-C2 gamma), 30%; in test [1] it was 2%; against PIP5K1C, 15%. For the same compound, the “% Inhibition Avg” value at PIK3C2A (PI3K-C2 alpha) came out at 88%.

With `O=C(CSc1nc2nccnc2c(=O)n1CCc1ccccc1)Nc1nc(-c2cccc(O)c2)cs1` [compound 2, PITCOIN2], the inhibition at 1 µM against PIP4K2A is 2%; against SPHK1, -6%; on PIK3C2G (PI3K-C2 gamma), 9%; in test [1], 0%; at PIP5K1C it was -8%. In addition, on PIK3C2A (PI3K-C2 alpha), the “% Inhibition Avg” value was 87%.

`CS(=O)(=O)Nc1cccc(-c2csc(NC(=O)CSc3nc4nccnc4c(=O)n3CCc3ccccc3)n2)c1` [compound 3, PITCOIN3]: the inhibition at 1 µM is -15% against PIP4K2A; -1% against SPHK1; 6% against PIK3C2G (PI3K-C2 gamma); 4% in test [1]; -4% on PIP5K1C. Moreover, the “% Inhibition Avg” value at PIK3C2A (PI3K-C2 alpha) is on record as 83%.
